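Protocol summary: plate cells (96-well), add compound at 5 concentrations, incubate 48 h, interpolate endpoints linearly. At the GI50, growth is halved. At the TGI there is no net growth.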
Columns and labels:
Test in all cases: DTP human tumour cell line panel, 48 h
786-0 renal = system: 786-0 renal
SF-268 CNS = system: SF-268 CNS
CCRF-CEM leukemia = system: CCRF-CEM leukemia
SK-MEL-2 melanoma = system: SK-MEL-2 melanoma
SNB-19 CNS = system: SNB-19 CNS
HT29 colon = system: HT29 colon
SW-620 colon = system: SW-620 colon
SK-MEL-5 melanoma = system: SK-MEL-5 melanoma
HCT-116 colon = system: HCT-116 colon

Row | Compound | GI50 (786-0 renal) | TGI (786-0 renal) | GI50 (SF-268 CNS) | TGI (SF-268 CNS) | GI50 (CCRF-CEM leukemia) | TGI (CCRF-CEM leukemia) | GI50 (SK-MEL-2 melanoma) | TGI (SK-MEL-2 melanoma) | GI50 (SNB-19 CNS) | TGI (SNB-19 CNS) | GI50 (HT29 colon) | TGI (HT29 colon) | GI50 (SW-620 colon) | TGI (SW-620 colon) | GI50 (SK-MEL-5 melanoma) | TGI (SK-MEL-5 melanoma) | GI50 (HCT-116 colon) | TGI (HCT-116 colon)
1 | COC1=CC(c2ccc[nH]2)=N/C1=C\c1[nH]c(C)c(C(=O)CCCCC(=O)Nc2ccccc2)c1C | 4.79 µM | 12.6 µM | 1.26 µM | 2.72 µM | 0.261 µM | 1.43 µM | 11.9 µM | 26.7 µM | 6.09 µM | 20.8 µM | 0.693 µM | 2.52 µM | 1.02 µM | 2.34 µM | 4.22 µM | 11.6 µM | 1.64 µM | 3 µM
2 | Nc1nc2nc[nH]c2c(=O)[nH]1 | – | > 100 µM | – | > 100 µM | – | > 100 µM | – | > 100 µM | – | – | – | > 100 µM | – | > 100 µM | – | > 100 µM | – | > 100 µM
3 | CCCN(CCC)c1ccc(/C=N/NC(=O)c2cccnc2)c(Cl)c1 | 11.6 µM | 29.1 µM | 15.5 µM | 38.9 µM | 15 µM | > 100 µM | 14.2 µM | 30.4 µM | 16.6 µM | > 100 µM | 4.71 µM | 17.8 µM | 8.07 µM | 28.6 µM | 6.09 µM | 19 µM | 2.88 µM | 16 µM
4 | COC(=O)C1=C(C(=O)OC)C23C=C(C)C1C2=C(C)C1(CC1)[C@@](C)(O)C3=O (some centres not stated) | 0.323 µM | 3.05 µM | 0.273 µM | 3.07 µM | 4.8 µM | > 100 µM | 0.25 µM | 0.63 µM | 0.359 µM | 13.5 µM | 0.337 µM | 16.9 µM | 9.14 µM | 30.2 µM | 0.164 µM | 0.314 µM | 0.37 µM | 11.5 µM
5 | CCOC(=O)c1sc(=S)c2c(C(=O)OCC)c(C(=O)OCC)sc2c1C(=O)OCC | 20.4 µM | 44.5 µM | 16.4 µM | 33.9 µM | 19.1 µM | 61.7 µM | 21.2 µM | 44.7 µM | 32.2 µM | > 100 µM | 28 µM | > 100 µM | 23.7 µM | 56.4 µM | 16.4 µM | 32.9 µM | 18 µM | 40 µM
6 | Cc1nc(NC(=O)CCCN2C(=O)c3cccc4cccc(c34)C2=O)sc1C(=O)Nc1cc(C(=O)NCCCN(C)C)n(C)c1 | > 100 µM | > 100 µM | > 100 µM | > 100 µM | – | – | > 100 µM | > 100 µM | > 100 µM | > 100 µM | > 100 µM | > 100 µM | > 100 µM | > 100 µM | > 100 µM | > 100 µM | > 100 µM | > 100 µM
7 | COc1ccc([N+](=O)[O-])c(S(=O)(=O)c2ccc(Cl)cc2)n1 | 2.51 µM | 7.18 µM | 4.57 µM | 17.8 µM | 2.93 µM | 13.8 µM | 11.4 µM | 24.3 µM | 13 µM | 29.2 µM | 3.34 µM | 13.9 µM | 2.06 µM | 4.65 µM | 12 µM | 24.9 µM | 2.9 µM | 9.33 µM
8 | C=C(C)[C@@H]1CC[C@]2(C)[C@H](CC[C@@H]3[C@H]4[C@H]5OC[C@@]4(CCC5(C)C)CC[C@]32C)[C@@]1(C)CCCN | 1.67 µM | 3.17 µM | 1.81 µM | 3.8 µM | 2.44 µM | > 100 µM | – | – | 1.78 µM | 3.24 µM | – | – | 1.77 µM | 3.48 µM | 1.91 µM | 3.55 µM | – | –
9 | COc1cc2nc(Nc3cccc(F)c3)nc(Nc3cc(C)[nH]n3)c2cc1OC | 1.75 µM | 3.45 µM | 1.82 µM | 3.46 µM | 1.11 µM | > 100 µM | 2.1 µM | 4.08 µM | 1.95 µM | 4.05 µM | 1.99 µM | 4.93 µM | 1.84 µM | 3.75 µM | 1.44 µM | 2.84 µM | – | –
10 | COc1cc(-n2cc(-c3ccc(Cl)cc3)[nH]c2=O)cc(OC)c1OC | 15.2 µM | 35.3 µM | 30.4 µM | 88.6 µM | – | – | 72.6 µM | > 100 µM | 32.6 µM | > 100 µM | 43.8 µM | > 100 µM | > 100 µM | > 100 µM | 31.1 µM | > 100 µM | 35.4 µM | > 100 µM
11 | COc1ccc(/C=C/c2n[nH]c3ccc(N4CCOC4=O)cc23)cc1 | 3.76 µM | > 100 µM | 3.64 µM | > 100 µM | – | – | 2.53 µM | 6.21 µM | 3.12 µM | > 100 µM | 1.49 µM | > 100 µM | 1.64 µM | 10.8 µM | 2.15 µM | 5.66 µM | 0.693 µM | 13.6 µM
12 | COc1ccc(C2=NN(C(C)=O)C(c3cn(-c4ccccc4)nc3-c3ccc(Cl)cc3)C2)cc1 (configuration not stated) | 30.7 µM | > 100 µM | 6.2 µM | > 100 µM | > 100 µM | > 100 µM | > 100 µM | > 100 µM | – | – | – | – | – | > 100 µM | > 100 µM | > 100 µM | > 100 µM | > 100 µM
